# From patent US11661422B2, “Tricyclic urea compounds as JAK2 V617F inhibitors” (Incyte Corporation, priority 2020, dated 2023)
# Where a name gives a salt, the structure may show the parent alone.
# How the values were obtained:
# [1] = target: pseudo-kinase domain (JH2, amino-acids 536-812) of human Wild Type JAK2 (Homo sapiens (Human), UniProt O60674, F794H/W659A/W777A); assay: JAK2 LanthaScreen JH2-WT Binding Assay; conditions: JAK2 JH2-WT 0.145 nM, 50 nM fluorescent tracer, 1 hour at 25° C.; read-out: JH2 BIND WT IC50
# Sequence of pseudo-kinase domain (JH2, amino-acids 536-812) of human Wild Type JAK2 (O60674 536-812 W659A/W777A/F794H): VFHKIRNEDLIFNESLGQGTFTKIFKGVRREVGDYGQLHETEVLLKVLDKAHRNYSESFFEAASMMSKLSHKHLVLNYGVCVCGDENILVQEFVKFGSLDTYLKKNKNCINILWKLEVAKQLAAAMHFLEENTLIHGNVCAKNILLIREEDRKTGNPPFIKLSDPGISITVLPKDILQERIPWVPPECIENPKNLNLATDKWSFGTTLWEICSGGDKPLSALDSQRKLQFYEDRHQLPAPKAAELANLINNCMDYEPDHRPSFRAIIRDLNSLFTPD
# Experimental: Example B. JAK2 LanthaScreen JH2-WT Binding Assay
# (§1) The assay was conducted in black 384-well polystyrene plates in a final reaction volume of 20 μL. JAK2 JH2-WT (0.145 nM) was incubated with compounds (100 nL serially diluted in DMSO) in the presence of 50 nM Fluorescent JAK2-JH2 Tracer (MedChem Express Catalog #HY-102055) and 0.25 nM Streptavidin-Tb cryptate (Cisbio Part #610SATLB) in assay buffer (50 mM Tris, pH=7.5, 10 mM MgCl2, 0.01% Brij-35, 0.1% BSA, 1 mM EGTA, 5% Glycerol and 5 mM DTT). Non-specific binding was accessed in the presence of 2 mM ATP. After incubation for 1 hour at 25° C., LanthaScreen signals were read on a PHERAstar FS plate reader (BMG LABTECH). Data was analyzed with IDBS XLfit and GraphPad Prism 5.0 software using a four parameter dose response curve to determine IC50 for each compound.
# [2] = target: catalytic domain (JH1, amino acids 808-1132) of human JAK2 (Homo sapiens (Human), UniProt O60674); assay: JAK2 HTRF Enzyme Activity Assay; assay type: biochemical; conditions: JAK2 0.015 nM, ATP (30 μM or 1 mM), 60 minutes at 25° C.
# Sequence of catalytic domain (JH1, amino acids 808-1132) of human JAK2 (O60674 808-1132): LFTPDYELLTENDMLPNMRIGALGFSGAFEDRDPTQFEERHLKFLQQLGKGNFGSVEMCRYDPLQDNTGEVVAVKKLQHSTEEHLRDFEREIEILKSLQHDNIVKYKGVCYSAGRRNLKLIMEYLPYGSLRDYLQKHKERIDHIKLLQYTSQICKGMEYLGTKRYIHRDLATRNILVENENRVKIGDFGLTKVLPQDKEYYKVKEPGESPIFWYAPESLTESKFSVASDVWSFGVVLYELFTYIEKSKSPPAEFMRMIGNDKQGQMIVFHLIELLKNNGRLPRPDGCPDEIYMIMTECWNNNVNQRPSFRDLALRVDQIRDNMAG
# Experimental: Example D. JAK2 HTRF Enzyme Activity Assay
# JAK2 enzyme activity assays utilize catalytic domain (JH1, amino acids 808-1132) of human JAK2 expressed as N-terminal His-tagged protein in a baculovirus expression system (BPS Bioscience, Catalog #40450). The assays was conducted in black 384-well polystyrene plates in a final reaction volume of 20 μL. JAK2 (0.015 nM) was incubated with compounds (100 nL serially diluted in DMSO) in the presence of ATP (30 μM or 1 mM) and 500 nM Biotin-labeled […] (SEQ ID NO.: 1) peptide (BioSource International, custom synthesis) in assay buffer (50 mM Tris, pH=7.5, 10 mM MgCl2, 0.01% Brij-35, 0.1% BSA, 1 mM EGTA, 5% Glycerol and 5 mM DTT) for 60 minutes at 25° C. The reactions were stopped by the addition of 10 μL of detection buffer (50 mM Tris, pH 7.8, 0.5 mg/mL BSA, 150 mM NaCl), supplemented with EDTA, LANCE Eu-W1024 anti-phosphotyrosine (PY20), (PerkinElmer, Catalog #AD0067) and Streptavidin SureLight APC (PerkinElmer Catalog #CR130-100), for a final concentration of 15 mM, 1.5 nM and 75 nM, respectively. HTRF signals were read after 30 minutes incubation at room temperature on a PHERAstar FS plate reader (BMG LABTECH). Data was analyzed with IDBS XLfit and GraphPad Prism 5.0 software using a four parameter dose response curve to determine IC50 for each compound.
# [3] = target: pseudo-kinase domain (JH2, amino-acids 536-812) of human V617F mutant JAK2 (Homo sapiens (Human), UniProt O60674, F794H/V617F/W659A/W777A); assay: JAK2 LanthaScreen JH2-V617F Binding Assay; conditions: JAK2 JH2-V617F 0.26 nM, 50 nM fluorescent tracer, 1 hour at 25° C.; read-out: JH2 BIND V617F IC50
# Sequence of pseudo-kinase domain (JH2, amino-acids 536-812) of human V617F mutant JAK2 (O60674 536-812 V617F/W659A/W777A/F794H): as the sequence (O60674 536-812 W659A/W777A/F794H) above, with V82F counted along it
# Experimental: The assay was conducted in black 384-well polystyrene plates in a final reaction volume of 20 μL. […] Non-specific binding was accessed in the presence of 2 mM ATP. After incubation for 1 hour at 25° C., LanthaScreen signals were read on a PHERAstar FS plate reader (BMG LABTECH). Data was analyzed with IDBS XLfit and GraphPad Prism 5.0 software using a four parameter dose response curve to determine IC50 for each compound.
# [4] = target: catalytic domain (JH1, amino acids 826-1132) of human JAK2 (Homo sapiens (Human), UniProt O60674); assay: JAK2 LanthaScreen JH1 Binding Assay; conditions: JAK2 JH1 1.5 nM, 50 nM fluorescent tracer, 2 hours at 25° C.; read-out: JH1 BIND IC50
# Sequence of catalytic domain (JH1, amino acids 826-1132) of human JAK2 (O60674 826-1132): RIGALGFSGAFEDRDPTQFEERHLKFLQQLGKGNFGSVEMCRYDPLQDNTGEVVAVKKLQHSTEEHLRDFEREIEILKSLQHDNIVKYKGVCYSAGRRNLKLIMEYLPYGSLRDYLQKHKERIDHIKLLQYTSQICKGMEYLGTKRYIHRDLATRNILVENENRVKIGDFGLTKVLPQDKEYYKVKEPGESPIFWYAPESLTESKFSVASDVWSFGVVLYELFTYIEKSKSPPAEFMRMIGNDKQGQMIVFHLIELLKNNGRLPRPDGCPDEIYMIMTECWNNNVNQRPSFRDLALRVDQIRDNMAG
# Experimental: Example A. JAK2 LanthaScreen JH1 Binding Assay
# as §1, with “JAK2 JH1 binding assay utilizes catalytic domain (JH1, amino acids 826-1132) of human JAK2 expressed as N-terminal FLAG-tagged, biotinylated protein in a baculovirus expression system (Carna Biosciences, Product #08-445-20N). The” for “The”, “JH1 (1.5” for “JH2-WT (0.145”, “JAK2-JH1” for “JAK2-JH2”, “Tracer” for “Tracer (MedChem Express Catalog #HY-102055)”, “0.5” for “0.25”, “2 hours” for “1 hour”
structure (smiles),measurement,setting,value
"CC1c2c(cnc3[nH]c(-c4ccc(CN5CCC(S(C)(=O)=O)CC5)cc4)cc23)N(C)C(=O)N1c1ccc(C(=O)O)cc1 (racemic) [Example 10, 4-(1,4-Dimethyl-8-(4-((4-(methylsulfonyl)piperidin-1-yl)methyl)phenyl)-3-oxo-1,3,4,7-tetrahydro-2H-pyrrolo[3′,2′:5,6]pyrido[3,4-d]pyrimidin-2-yl)benzoic Acid]",IC50,[1],≤ 100 nM
same,IC50,[2],1000 to 2500 nM
same,IC50,[3],100 to 500 nM
same,IC50,[4],1000 to 2500 nM
"CC(C(N)=O)n1cc(-c2ccc(-c3c(-c4ccc(CN5CCC(S(C)(=O)=O)CC5)cc4)[nH]c4ncc5c(c34)CN(C(C)(C)C)C(=O)N5C)cc2)cn1 (racemic) [Example 19, 2-(4-(4-(2-(tert-Butyl)-4-methyl-8-(4-((4-(methylsulfonyl)piperidin-1-yl)methyl)phenyl)-3-oxo-2,3,4,7-tetrahydro-1H-pyrrolo[3′,2′:5,6]pyrido[3,4-d]pyrimidin-9-yl)phenyl)-1H-pyrazol-1-yl)propanamide Trifluoroacetic Acid Salt]",IC50,[1],≤ 100 nM
same,IC50,[2],≤ 100 nM
same,IC50,[3],≤ 100 nM
same,IC50,[4],≤ 100 nM
"CN1C(=O)NCc2c1cnc1[nH]c(-c3ccc(CN4CCC(S(C)(=O)=O)CC4)cc3)cc21 [Example 1, 4-Methyl-8-(4-((4-(methylsulfonyl)piperidin-1-yl)methyl)phenyl)-1,2,4,7-tetrahydro-3H-pyrrolo[3′,2′:5,6]pyrido[3,4-d]pyrimidin-3-one]",IC50,[1],100 to 500 nM
same,IC50,[2],≤ 100 nM
same,IC50,[3],500 to 1000 nM
same,IC50,[4],≤ 100 nM
"CN1C(=O)N(c2ccccc2)Cc2c1cnc1[nH]c(-c3ccc(CN4CCC(S(C)(=O)=O)CC4)cc3)cc21 [Example 2, 4-Methyl-8-(4-((4-(methylsulfonyl)piperidin-1-yl)methyl)phenyl)-2-phenyl-1,2,4,7-tetrahydro-3H-pyrrolo[3′,2′:5,6]pyrido[3,4-b]pyrimidin-3-one]",IC50,[1],100 to 500 nM
same,IC50,[2],≤ 100 nM
same,IC50,[3],500 to 1000 nM
same,IC50,[4],≤ 100 nM
"CN1C(=O)N(c2ccc(C(=O)O)cc2)Cc2c1cnc1[nH]c(-c3ccc(CN4CCC(S(C)(=O)=O)CC4)cc3)cc21 [Example 3, 4-(4-Methyl-8-(4-((4-(methylsulfonyl)piperidin-1-yl)methyl)phenyl)-3-oxo-1,3,4,7-tetrahydro-2H-pyrrolo[3′,2′:5,6]pyrido[3,4-d]pyrimidin-2-yl)benzoic Acid]",IC50,[1],≤ 100 nM
same,IC50,[2],1000 to 2500 nM
same,IC50,[3],≤ 100 nM
same,IC50,[4],1000 to 2500 nM
"CS(=O)(=O)C1CCN(Cc2ccc(-c3cc4c5c(cnc4[nH]3)NC(=O)N(C3CCCCC3)C5)cc2)CC1 [Example 5, 2-Cyclohexyl-8-(4-((4-(methylsulfonyl)piperidin-1-yl)methyl)phenyl)-1,2,4,7-tetrahydro-3H-pyrrolo[3′,2′:5,6]pyrido[3,4-d]pyrimidin-3-one]",IC50,[1],100 to 500 nM
same,IC50,[2],≤ 100 nM
same,IC50,[3],500 to 1000 nM
same,IC50,[4],≤ 100 nM
"CS(=O)(=O)C1CCN(Cc2ccc(-c3cc4c5c(cnc4[nH]3)NC(=O)N(C3CCN(S(N)(=O)=O)CC3)C5)cc2)CC1 [Example 7, 4-(8-(4-((4-(methylsulfonyl)piperidin-1-yl)methyl)phenyl)-3-oxo-1,3,4,7-tetrahydro-2H-pyrrolo[3′,2′:5,6]pyrido[3,4-d]pyrimidin-2-yl)piperidine-1-sulfonamide]",IC50,[1],500 to 1000 nM
same,IC50,[2],≤ 100 nM
same,IC50,[3],1000 to 2500 nM
same,IC50,[4],≤ 100 nM
"COCCNc1ccc(N2Cc3c(cnc4[nH]c(-c5ccc(CN6CCC(S(C)(=O)=O)CC6)cc5)cc34)N(C)C2=O)cc1 [Example 8, 2-(4-((2-Methoxyethyl)amino)phenyl)-4-methyl-8-(4-((4-(methylsulfonyl)piperidin-1-yl)methyl)phenyl)-1,2,4,7-tetrahydro-3H-pyrrolo[3′,2′:5,6]pyrido[3,4-d]pyrimidin-3-one]",IC50,[1],100 to 500 nM
same,IC50,[2],100 to 500 nM
same,IC50,[3],500 to 1000 nM
same,IC50,[4],100 to 500 nM
"CN1C(=O)N(c2ccc(NC(=O)CC#N)cc2)Cc2c1cnc1[nH]c(-c3ccc(CN4CCC(S(C)(=O)=O)CC4)cc3)cc21 [Example 9, 2-Cyano-N-(4-(4-methyl-8-(4-((4-(methylsulfonyl)piperidin-1-yl)methyl)phenyl)-3-oxo-1,3,4,7-tetrahydro-2H-pyrrolo[3′,2′:5,6]pyrido[3,4-d]pyrimidin-2-yl)phenyl)acetamide]",IC50,[1],100 to 500 nM
same,IC50,[2],100 to 500 nM
same,IC50,[3],100 to 500 nM
same,IC50,[4],100 to 500 nM
"COc1ccc(-c2c(-c3ccc(CN4CCC(S(C)(=O)=O)CC4)cc3)[nH]c3ncc4c(c23)CN(c2ccc(C(=O)Nc3cccnc3)cc2)C(=O)N4C)cc1 [Example 11, 4-(9-(4-Methoxyphenyl)-4-methyl-8-(4-((4-(methylsulfonyl)piperidin-1-yl)methyl)phenyl)-3-oxo-1,3,4,7-tetrahydro-2H-pyrrolo[3′,2′:5,6]pyrido[3,4-d]pyrimidin-2-yl)-N-(pyridin-3-yl)benzamide, Bistrifluoroacetic Acid Salt]",IC50,[1],≤ 100 nM
same,IC50,[2],> 2500 nM
same,IC50,[3],≤ 100 nM
same,IC50,[4],> 2500 nM
"CNC(=O)c1ccc(N2Cc3c(cnc4[nH]c(-c5ccc(CN6CCC(S(C)(=O)=O)CC6)cc5)c(-c5ccc(OC)cc5)c34)N(C)C2=O)cc1 [Example 12, 4-(9-(4-methoxyphenyl)-4-methyl-8-(4-((4-(methylsulfonyl)piperidin-1-yl)methyl)phenyl)-3-oxo-1,3,4,7-tetrahydro-2H-pyrrolo[3′,2′:5,6]pyrido[3,4-d]pyrimidin-2-yl)-N-methylbenzamide, trifluroacetate]",IC50,[1],≤ 100 nM
same,IC50,[2],1000 to 2500 nM
same,IC50,[3],≤ 100 nM
same,IC50,[4],1000 to 2500 nM
"COc1ccc(-c2c(-c3ccc(CN4CCC(S(C)(=O)=O)CC4)cc3)[nH]c3ncc4c(c23)CN(c2ccc(C(=O)NCC(=O)NNCc3ccccc3)cc2)C(=O)N4C)cc1 [Example 13, N-(2-(2-Benzylhydrazineyl)-2-oxoethyl)-4-(9-(4-methoxyphenyl)-4-methyl-8-(4-((4-(methylsulfonyl)piperidin-1-yl)methyl)phenyl)-3-oxo-1,3,4,7-tetrahydro-2H-pyrrolo[3′,2′: 5,6]pyrido[3,4-d]pyrimidin-2-yl)benzamide, TFA]",IC50,[2],1000 to 2500 nM
same,IC50,[4],1000 to 2500 nM
